US10336762B2 (priority 2017, dated 2019)
Read-outs that look alike come from different tables or passages of the source.

Experiments:
IRAK4 enzyme = IRAK4 enzyme (Homo sapiens (Human), UniProt Q9NWZ3); experiment: biochemical; assay type: biochemical
TNFα = experiment: cells; assay type: cell-based, human; conditions: Homo sapiens, Monocyte, read-out: EC50 TNF
[1] = IRAK4 enzyme, TR-FRET, 500 μM ATP
[2] = LPS-stimulated human monocytes, TNFα content

Sequence of IRAK4 enzyme (Q9NWZ3 whole entry): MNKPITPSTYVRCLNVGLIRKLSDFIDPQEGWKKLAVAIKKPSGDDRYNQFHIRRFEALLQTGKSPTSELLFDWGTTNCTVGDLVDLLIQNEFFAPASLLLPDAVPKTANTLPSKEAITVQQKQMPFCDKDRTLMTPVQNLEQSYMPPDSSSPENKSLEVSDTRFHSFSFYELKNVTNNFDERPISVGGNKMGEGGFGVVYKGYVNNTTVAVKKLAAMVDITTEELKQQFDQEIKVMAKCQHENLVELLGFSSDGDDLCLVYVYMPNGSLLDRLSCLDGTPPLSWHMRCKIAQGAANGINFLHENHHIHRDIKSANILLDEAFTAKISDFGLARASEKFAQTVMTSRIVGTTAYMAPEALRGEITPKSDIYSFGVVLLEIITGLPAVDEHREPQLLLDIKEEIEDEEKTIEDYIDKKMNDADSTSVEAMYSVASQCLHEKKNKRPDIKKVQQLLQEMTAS

| Structure (SMILES) | IC50 (IRAK4 enzyme; [1]) [nM] | EC50 (TNFα; [2]) [nM] | IC50 (IRAK4 enzyme) [nM] | EC50 (TNFα) [nM] |
| --- | --- | --- | --- | --- |
| COC(=O)NC12CCC(Nc3cc(-c4ccc5cc(C#N)cnn45)ncc3C(=O)NC3CCC(NC(=O)N4CCOCC4)CC3)(CC1)CC2 (stereo not drawn) [Example 270, methyl (4-((2-(3-cyano-pyrrolo[1,2-b]pyridazin-7-yl)-5-((4-(morpholine-4-carboxamido)cyclohexyl)carbamoyl)pyridin-4-yl)amino)bicyclo[2.2.2]octan-1-yl)carbamate] | 1 | 49 |  |  |
| COC(=O)NC12CCC(Nc3cc(-c4ccc5cc(C#N)cnn45)ncc3C(=O)NC3CCC(NC(=O)C4CC4)CC3)(CC1)CC2 (stereo not drawn) [Example 271, methyl (4-((2-(3-cyano-pyrrolo[1,2-b]pyridazin-7-yl)-5-((4-(cyclopropane-carboxamido)cyclohexyl)carbamoyl)pyridin-4-yl)amino)bicyclo[2.2.2]octan-1-yl)carbamate] | 1 | 38 |  |  |
| CN(C)C(=O)NC12CCC(Nc3cc(-c4ccc5cc(C#N)cnn45)ncc3C(=O)NC[C@@H](F)C(C)(C)O)(CC1)CC2 [Example 272, (R)-6-(3-cyanopyrrolo[1,2-b]pyridazin-7-yl)-4-((4-(3,3-dimethylureido)bicyclo[2.2.2]octan-1-yl)amino)-N-(2-fluoro-3-hydroxy-3-methylbutyl)nicotinamide] | 1 | 23 |  |  |
| CC(C)(O)C1CCC(Nc2cc(-c3ccc4cc(C#N)cnn34)ncc2C(=O)NC[C@@H](F)C(C)(C)O)CC1 (stereo partly drawn) [Example 273, 6-(3-cyanopyrrolo[1,2-b]pyridazin-7-yl)-N-((R)-2-fluoro-3-hydroxy-3-methylbutyl)-4-(((1r,4R)-4-(2-hydroxypropan-2-yl)cyclohexyl)amino) nicotinamide] | 2 | 22 |  |  |
| CNC(=O)c1cnc(-c2ccc3cc(C#N)cnn23)cc1N[C@H]1CC[C@H](NC(=O)OC)CC1 [Example 274, methyl ((1r,4r)-4-((2-(3-cyanopyrrolo[1,2-b]pyridazin-7-yl)-5-(methylcarbamoyl)pyridin-4-yl)amino)cyclohexyl)carbamate] | 1 | 144 |  |  |
| CNC(=O)c1cnc(-c2ccc3cc(C#N)cnn23)cc1NC1CCC(NC(=O)C(F)(F)F)CC1 (stereo not drawn) [Example 275, 6-(3-cyanopyrrolo[1,2-b]pyridazin-7-yl)-N-methyl-4-(((1r,4r)-4-(2,2,2-trifluoroacetamido)cyclohexyl)amino) nicotinamide] | 3 | 154 |  |  |
| CNC(=O)c1cnc(-c2ccc3cc(C#N)cnn23)cc1N[C@H]1CC[C@H](NC(C)=O)CC1 [Example 276, 4-(((1r,4r)-4-acetamidocyclohexyl)amino)-6-(3-cyano-pyrrolo[1,2-b]pyridazin-7-yl)-N-methylnicotinamide] | 3 | 146 |  |  |
| CC(=O)NC12CC(Nc3cc(-c4ccc5cc(C#N)cnn45)ncc3C(=O)NCC(F)(F)F)(C1)C2 [Example 277, 4-((3-acetamido-bicyclo[1.1.1]pentan-1-yl)amino)-6-(3-cyano-pyrrolo[1,2-b]pyridazin-7-yl)-N-(2,2,2-trifluoroethyl) nicotinamide] | 5 | 383 |  |  |
| CC(=O)NC12CC(Nc3cc(-c4ccc5cc(C#N)cnn45)ncc3C(=O)NCC(F)F)(C1)C2 [Example 278, 4-((3-acetamido-bicyclo[1.1.1]pentan-1-yl)amino)-6-(3-cyano-pyrrolo[1,2-b]pyridazin-7-yl)-N-(2,2-difluoroethyl) nicotinamide] | 3 | 165 |  |  |
| CC(C)(O)[C@H](F)CNC(=O)c1cnc(-c2ccc3cc(C#N)cnn23)cc1NC12CCC(NC(=O)OC3COC3)(CC1)CC2 [Example 279, (R)-oxetan-3-yl (4-((2-(3-cyanopyrrolo[1,2-b]pyridazin-7-yl)-5-((2-fluoro-3-hydroxy-3-methylbutyl)carbamoyl)pyridin-4-yl)amino)bicyclo[2.2.2]octan-1-yl)carbamate] | 2 | 29 |  |  |
| CC(C)(O)[C@H](F)CNC(=O)c1cnc(-c2ccc3cc(C#N)cnn23)cc1N[C@H]1CC[C@H](NC(=O)OC2COC2)CC1 [Example 280, oxetan-3-yl ((1R,4r)-4-((2-(3-cyanopyrrolo[1,2-b]pyridazin-7-yl)-5-(((R)-2-fluoro-3-hydroxy-3-methylbutyl)carbamoyl)pyridin-4-yl)amino)cyclo-hexyl)carbamate] | 1 | 55 |  |  |
| CC(C)(O)[C@H](F)CNC(=O)c1cnc(-c2ccc3cc(C#N)cnn23)cc1NC12CCC(NC(=O)C3CC3)(CC1)CC2 [Example 281, (R)-6-(3-cyanopyrrolo[1,2-b]pyridazin-7-yl)-4-((4-(cyclopropanecarboxamido)bicyclo[2.2.2]octan-1-yl)amino)-N-(2-fluoro-3-hydroxy-3-methylbutyl) nicotinamide] | 1 | 37 |  |  |
| CC1(C(=O)N[C@H]2CC[C@H](Nc3cc(-c4ccc5cc(C#N)cnn45)ncc3C(=O)NC[C@@H](F)C(C)(C)O)CC2)COC1 [Example 282, 6-(3-cyanopyrrolo[1,2-b]pyridazin-7-yl)-N-((R)-2-fluoro-3-hydroxy-3-methylbutyl)-4-(((1r,4R)-4-(3-methyloxetane-3-carboxamido)cyclohexyl)amino)nicotinamide] |  |  | 2 | 364 |
| [2H]C([2H])([2H])OC(=O)NC12CCC(Nc3cc(-c4ccc5cc(C#N)cnn45)ncc3C(=O)NC[C@@H](F)C(C)(C)O)(CC1)CC2 [Example 283, methyl-d3 (R)-(4-((2-(3-cyanopyrrolo[1,2-b]pyridazin-7-yl)-5-((2-fluoro-3-hydroxy-3-methylbutyl)carbamoyl)pyridin-4-yl)amino)bicyclo[2.2.2]octan-1-yl)carbamate] | 1 | 14 |  |  |
| COCC(=O)N[C@H]1CC[C@H](Nc2cc(-c3ccc4cc(C#N)cnn34)ncc2C(=O)NC[C@@H](F)C(C)(C)O)CC1 [Example 284, 6-(3-cyanopyrrolo[1,2-b]pyridazin-7-yl)-N-((R)-2-fluoro-3-hydroxy-3-methylbutyl)-4-(((1r,4R)-4-(2-methoxyacetamido)cyclohexyl)amino) nicotinamide] | 1 | 88 |  |  |
| CN(C)S(=O)(=O)N[C@H]1CC[C@H](Nc2cc(-c3ccc4cc(C#N)cnn34)ncc2C(=O)NC[C@@H](F)C(C)(C)O)CC1 [Example 285, 6-(3-cyanopyrrolo[1,2-b]pyridazin-7-yl)-4-(((1r,4R)-4-((N,N-dimethylsulfamoyl)amino)cyclohexyl)amino)-N-((R)-2-fluoro-3-hydroxy-3-methylbutyl)nicotinamide] | 2 | 167 |  |  |
| CN(C)C(=O)N[C@H]1CC[C@H](Nc2cc(-c3ccc4cc(C#N)cnn34)ncc2C(=O)NC[C@@H](F)C(C)(C)O)CC1 [Example 286, 6-(3-cyanopyrrolo[1,2-b]pyridazin-7-yl)-4-(((1r,4R)-4-(3,3-dimethylureido)cyclohexyl)amino)-N-((R)-2-fluoro-3-hydroxy-3-methylbutyl)nicotinamide] | 1 | 41 |  |  |
| CC(C)(O)[C@H](F)CNC(=O)c1cnc(-c2ccc3cc(C#N)cnn23)cc1N[C@H]1CC[C@H](NC(=O)OCC2CC2)CC1 [Example 287, cyclopropylmethyl ((1R,4r)-4-((2-(3-cyanopyrrolo[1,2-b]pyridazin-7-yl)-5-(((R)-2-fluoro-3-hydroxy-3-methylbutyl)carbamoyl)pyridin-4-yl)amino)cyclohexyl)carbamate] | 1 | 147 |  |  |
| CC(C)(O)[C@H](F)CNC(=O)c1cnc(-c2ccc3cc(C#N)cnn23)cc1N[C@H]1CC[C@H](NC(=O)OC2CCC2)CC1 [Example 288, cyclobutyl ((1R,4r)-4-((2-(3-cyanopyrrolo[1,2-b]pyridazin-7-yl)-5-(((R)-2-fluoro-3-hydroxy-3-methylbutyl)carbamoyl)pyridin-4-yl)amino)cyclohexyl)carbamate] | 1 | 54 |  |  |
| CC(C)(O)[C@H](F)CNC(=O)c1cnc(-c2ccc3cc(C#N)cnn23)cc1N[C@H]1CC[C@H](NCC(F)(F)F)CC1 [Example 289, 6-(3-cyanopyrrolo[1,2-b]pyridazin-7-yl)-N-((R)-2-fluoro-3-hydroxy-3-methylbutyl)-4-(((1r,4R)-4-((2,2,2-trifluoroethyl)amino)cyclohexyl)amino)nicotinamide] |  |  | 1 | 66 |
| CC(C)COC(=O)N[C@H]1CC[C@H](Nc2cc(-c3ccc4cc(C#N)cnn34)ncc2C(=O)NC[C@@H](F)C(C)(C)O)CC1 [Example 290, isobutyl ((1R,4r)-4-((2-(3-cyanopyrrolo[1,2-b]pyridazin-7-yl)-5-(((R)-2-fluoro-3-hydroxy-3-methylbutyl)carbamoyl)pyridin-4-yl)amino)cyclohexyl)carbamate] | 1 | 121 |  |  |
| CC(C)OC(=O)N[C@H]1CC[C@H](Nc2cc(-c3ccc4cc(C#N)cnn34)ncc2C(=O)NC[C@@H](F)C(C)(C)O)CC1 [Example 291, isopropyl ((1R,4r)-4-((2-(3-cyanopyrrolo[1,2-b]pyridazin-7-yl)-5-(((R)-2-fluoro-3-hydroxy-3-methylbutyl)carbamoyl)pyridin-4-yl)amino)cyclohexyl)carbamate] | 2 | 90 |  |  |
| CCOC(=O)N[C@H]1CC[C@H](Nc2cc(-c3ccc4cc(C#N)cnn34)ncc2C(=O)NC[C@@H](F)C(C)(C)O)CC1 [Example 292, ethyl ((1R,4r)-4-((2-(3-cyanopyrrolo[1,2-b]pyridazin-7-yl)-5-(((R)-2-fluoro-3-hydroxy-3-methylbutyl)carbamoyl)pyridin-4-yl)amino)cyclohexyl)carbamate] | 1 | 37 |  |  |
| COC(=O)N[C@H]1CC[C@H](Nc2cc(-c3ccc4cc(C#N)cnn34)ncc2C(=O)NC[C@@H](F)C(C)(C)OC(C)=O)CC1 [Example 293, (R)-4-(6-(3-cyanopyrrolo[1,2-b]pyridazin-7-yl)-4-(((1r,4R)-4-((methoxycarbonyl)amino)cyclohexyl)amino)nicotinamido)-3-fluoro-2-methylbutan-2-yl acetate] | 1 | 49 |  |  |
